Measurements published in US5773424A, “Treatment of toxoplasmosis” (priority 1994, dated 1998).
Where two headings read alike, the source gives them in different places.

Key:
[1] = test system: Toxoplasma gondii grown in human fibroblasts; test: Incorporation of radiolabeled uracil (parasite survival); format: cell-based; settings: Toxoplasma gondii, Fibroblast, read-out: percent survival of Toxoplasma gondii grown in human fibroblasts
Experimental: Incorporation of Radiolabeled Uracil. […] Uptake and incorporation of radiolabeled uracil into nucleic acids of T. gondii were carried out, at least in triplicates, in tissue culture, using monolayers of human foreskin fibroblasts infected with T. gondii. The fibroblasts were cultured in no more than 30 passages in Dulbecco's modified Eagle medium, containing 100 units/mL penicillin G and 100 μg/mL streptomycin sulfate, and 10% FBS, pH 7.2. Briefly, confluent cells (4-5 day incubation) were cultured for 24 hours in the 24-well flat bottom microtiterplates (~5×10^5 /1 mL/well) and incubated at 37° C. in 5% CO2, 95% air to allow the cells to attach. The medium was then removed and the cells were infected with isolated T. gondii in medium with 3% FBS (1 parasite/cell). After 1 hour incubation, the cultures were washed with media with 10% FBS to remove extracellular parasites. FBS was maintained at a final concentration of 10%. […] After an additional 18 hours incubation, the medium was replaced with 1 mL drug free media containing […] (2 μCi/mL) and incubated for another 6 hours, after which the media was removed. The fibroblasts were released from the wells by trypsinization with the addition of 200 μL trypsin/EDTA (2.5×) to each well. After 10 minutes incubation, 1 mL of ice cold 10% trichloroacetic acid (TCA) was added to each well. The plates were then placed on a shaker to insure the detachment of the cells. The suspended contents of each well were filtered through GF/A 2.4 cm glass microfiber filters (Whatman, Hillsboro, Oreg.), which were prewashed each with 1 mL double distilled H2 O and dried. After filtration, the filters were washed with 10 mL methanol, left to dry, and then placed in scintillation vials containing 5 mL of Econo-Safe scintillation fluor (Research Products International Corp., Mount Prospect, Ill.), and radioactivity was counted using an LS5801 Beckman scintillation counter.

[2] = Toxicity of compounds, MTT assay; format: cell-based, human; settings: human, foreskin fibroblasts, MTT, 48 hours, read-out: percent survival of uninfected human fibroblasts
Experimental: (§1) Toxicity of compounds. Toxicity of the different doses of the various analogues were performed at least in triplicates, using a modification of the Microculture Tetrazolium (MTT) assay and uninfected monolayers of human foreskin fibroblasts. Briefly, confluent cells were incubated for at least 24 hours in the 96-well flat bottom microtiterplates (~10^5 /200 μL/well) and incubated at 37° C. in 5% CO2, 95% air to allow the cells to attach. The medium was then replaced with 200 μL of fresh medium. […] The cultures were then incubated for 48 hours, after which 50 μL of sterile MTT solution (2 mg/1 mL PBS) was added to each well. MTT solution was sterilized by filtration through 0.22 μm filters (Costar, Cambridge, Mass.). After 4 hours incubation, the medium was removed and 100 μL of dimethylsulfoxide (DMSO) was added to each well and the plates were shaken gently for 2-3 minutes to dissolve the formed formazan crystals. The absorbance was measured at 540 nm, using a computerized microtiterplate reader (Themomax, Molecular Division)

[3] = test system: uninfected human foreskin fibroblasts; test: Toxicity of compounds, MTT assay; format: cell-based; settings: therapeutic doses (5-50 μM tested)
Experimental: as §1

[4] = biological target: T. gondii adenosine kinase (Toxoplasma gondii, UniProt Q9TVW2); test: biochemical
Experimental: Preparation of cytosol extracts. For the structure activity relationships studies, approximately 5×10^8 T. gondii were suspended in 1.2 ml of 50 mM N-2-hydroxyethylpiperazine-N'-2-ethanesulfonic acid (HEPES)-Cl (pH 8.0)/1 mM dithiothreitol and homogenized for 30 seconds at setting 10, using a Brinnmann Instruments Polytron homogenizer fitted with a PTA 7K1 probe. The homogenate was then centrifuged at approximately 116,000 g for 1 hour at 5° and the supernatant (cytosol extract) collected and used as the enzyme source. Fresh cytosol extracts were prepared for each experiment.
Adenosine kinase assay. T. gondii adenosine kinase activity was measured by following the formation of [^14 C]AMP from [^14 C]adenosine and ATP. […] Therefore, the standard reaction mixture contained 50 mM HEPES-Cl (pH 8.0), 1 mM dithiothreitol, 5 μM [8-^14 C]adenosine (45 Ci/mol), 0.5 mM ATP, 0.5 mM MgCl2, 25 μM (+)-EHNA or 100 μM (±)-EHNA,10-30 μl of cytosol extract (approximately 3-10 μg of protein), and either 0, 0.1, 0.25, 0.5 or 1.0 mM of the compound to be tested, in a final volume of 150 μl.
Reactions were started by the addition of [8-^14 C]adenosine, incubated at 37° for 10 minutes and terminated by placing the reaction tubes in a boiling water bath for 2 minutes. Precipitated proteins were removed by centrifugation in a microcentrifuge (approximately 13,000 g) for 5 minutes, and a 15 μl aliquot of the resulting supernatant was mixed with 5 μl of a solution containing 10 mM each of AMP and adenosine. This mixture was then spotted on silica gel thin layer chromatography plates which were developed with a mixture of chloroform/methanol/acetic acid (16:3:1). […] The substrate and product spots (which accounted for all of the radioactivity on the plates) were identified by UV quenching, cut out, and the radioactivity quantitated by liquid scintillation counting in 20 ml of Scintilene, using a Packard 460 scintillation counter. […] Enzyme velocity was calculated by multiplying the fraction of AMP formed from adenosine times the amount of adenosine in the assay, and dividing by the incubation time.
Determination and significance of AppKi values. AppKi values were used to determine the relative degree of binding of compounds to adenosine kinase as compared to adenosine. AppKi values were estimated from Dixon plots of the data (1/.nu. versus [I]), using a computer program with least squares fitting according to the general principles of Cleland (Cleland, W W, The statistical analysis of enzyme kinetic data. Adv. Enzymol. 29:1-32, 1967). The program was written by Dr. Sungman Cha (Brown University, Providence, R.I.) and modified to fit IBM BASIC by Dr. Fardos N. M. Naguib. […] It should be noted, however, that the type of inhibition (i.e., competitive, noncompetitive, or uncompetitive) produced by the compounds was not determined, nor were the compounds evaluated as substrates for T. gondii adenosine kinase.

[5] = 5 μM, [5,6-3H]uracil incorporation
[6] = 10 μM, [5,6-3H]uracil incorporation
[7] = 25 μM, [5,6-3H]uracil incorporation
[8] = 50 μM, [5,6-3H]uracil incorporation
[9] = AppKi for inhibition of T. gondii adenosine kinase, 5 μM adenosine, ± range, at least two estimations

Chain of T. gondii adenosine kinase (Q9TVW2 whole entry): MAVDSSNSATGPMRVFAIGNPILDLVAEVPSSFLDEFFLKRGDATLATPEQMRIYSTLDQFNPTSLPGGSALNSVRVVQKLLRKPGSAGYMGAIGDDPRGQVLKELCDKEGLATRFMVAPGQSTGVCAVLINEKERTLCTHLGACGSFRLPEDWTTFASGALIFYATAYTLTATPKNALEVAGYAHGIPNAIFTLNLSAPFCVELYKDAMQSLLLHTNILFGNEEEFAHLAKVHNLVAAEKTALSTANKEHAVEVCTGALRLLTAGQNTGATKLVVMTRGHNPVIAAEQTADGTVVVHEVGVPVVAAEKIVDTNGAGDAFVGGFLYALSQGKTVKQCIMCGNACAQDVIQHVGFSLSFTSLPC

Nc1ccc(S(=O)(=O)Nc2ncccn2)cc1 [Sulfadiazine, reference compound]
activity at 5 µM [1, 5]: 74.6% | activity at 10 µM [1, 6]: 64.8% | activity at 25 µM [1, 7]: 66.3% | activity at 50 µM [1, 8]: 66.3% | viability at 48 h, 5 µM [2]: 98.2% | viability at 48 h, 10 µM [2]: 99.7% | viability at 48 h, 25 µM [2]: 99.8% | viability at 48 h, 50 µM [2]: 102%

O=[N+]([O-])c1ccc(C[Se]c2ncnc3c2ncn3[C@@H]2O[C@H](CO)[C@@H](O)[C@H]2O)cc1 [Compound 24, 6-(p-Nitrobenzyl)selenopurine riboside]
activity at 5 µM [1]: 67.8% | activity at 10 µM [1]: 3.03% | activity at 25 µM [1]: 0% | activity at 50 µM [1]: 0% | viability at 48 h, 5 µM [2]: 89.3% | viability at 48 h, 10 µM [2]: 90.1% | viability at 48 h, 25 µM [2]: 63.4% | viability at 48 h, 50 µM [2]: 39.6%

O=C(Nc1ncnc2c1ncn2[C@@H]1O[C@H](CO)[C@@H](O)[C@H]1O)c1ccccc1 [Compound 44, N^6 -Benzoyladenosine]
activity at 5 µM [1, 5]: 96.4% | activity at 10 µM [1, 6]: 94.6% | activity at 25 µM [1, 7]: 112% | activity at 50 µM [1, 8]: 100% | viability at 48 h, 5 µM [2]: 94.4% | viability at 48 h, 10 µM [2]: 94.1% | viability at 48 h, 25 µM [2]: 97.6% | viability at 48 h, 50 µM [2]: 99.3%

CCc1nc(N)nc(N)c1-c1ccc(Cl)cc1 [Pyrimethamine, reference compound]
activity at 5 µM [1, 5]: 25.9% | activity at 10 µM [1, 6]: 12.9% | activity at 25 µM [1, 7]: 10.2% | activity at 50 µM [1, 8]: 13.8% | viability at 48 h, 5 µM [2]: 104% | viability at 48 h, 10 µM [2]: 98.8% | viability at 48 h, 25 µM [2]: 108% | viability at 48 h, 50 µM [2]: 118%

OC[C@H]1O[C@@H](n2cnc3c(NCc4ccccc4)ncnc32)[C@H](O)[C@@H]1O [Compound 45, N^6 -Benzyladenosine]
activity at 5 µM [1, 5]: 62.8% | activity at 10 µM [1, 6]: 41.8% | activity at 25 µM [1, 7]: 52.9% | activity at 50 µM [1, 8]: 26.3% | viability at 48 h, 5 µM [2]: 46.3% | viability at 48 h, 10 µM [2]: 21.8% | viability at 48 h, 25 µM [2]: 36.5% | viability at 48 h, 50 µM [2]: 31% | Toxicity to host cells (human fibroblasts), in words [3]: toxic to host cells at therapeutic doses

O=[N+]([O-])c1ccc(CNc2ncnc3c2ncn3[C@@H]2O[C@H](CO)[C@@H](O)[C@H]2O)cc1
activity at 5 µM [1, 5]: 35.9% | activity at 10 µM [1, 6]: 27.6% | activity at 25 µM [1, 7]: 21.6% | activity at 50 µM [1, 8]: 8.4% | viability at 48 h, 5 µM [2]: 104% | viability at 48 h, 10 µM [2]: 102% | viability at 48 h, 25 µM [2]: 92.3% | viability at 48 h, 50 µM [2]: 107%

Nc1ccc(CNc2ncnc3c2ncn3[C@@H]2O[C@H](CO)[C@@H](O)[C@H]2O)cc1 [Compound 46, N^6 -(p-Aminobenzyl)adenosine]
activity at 5 µM [1, 5]: 100% | activity at 10 µM [1, 6]: 95.6% | activity at 25 µM [1, 7]: 108% | activity at 50 µM [1, 8]: 120% | viability at 48 h, 5 µM [2]: 93.3% | viability at 48 h, 10 µM [2]: 91.9% | viability at 48 h, 25 µM [2]: 101% | viability at 48 h, 50 µM [2]: 101%

[N-]=[N+]=Nc1ccc(CNc2ncnc3c2ncn3[C@@H]2O[C@H](CO)[C@@H](O)[C@H]2O)cc1
activity at 5 µM [1, 5]: 36.9% | activity at 10 µM [1, 6]: 17% | activity at 25 µM [1, 7]: 15.1% | activity at 50 µM [1, 8]: 24.5% | viability at 48 h, 5 µM [2]: 97.3% | viability at 48 h, 10 µM [2]: 90.3% | viability at 48 h, 25 µM [2]: 88.9% | viability at 48 h, 50 µM [2]: 81.5%

COc1ccc(C(=O)Nc2ncnc3c2ncn3[C@@H]2O[C@H](CO)[C@@H](O)[C@H]2O)cc1 [Compound 47, N^6 -(p-Methoxybenzolyl)adenosine (N^6 -anisoyladenosine)]
activity at 5 µM [1, 5]: 94.2% | activity at 10 µM [1, 6]: 93.1% | activity at 25 µM [1, 7]: 104% | activity at 50 µM [1, 8]: 125% | viability at 48 h, 5 µM [2]: 92.9% | viability at 48 h, 10 µM [2]: 92.6% | viability at 48 h, 25 µM [2]: 99.2% | viability at 48 h, 50 µM [2]: 97.4%

NC(=O)c1cn([C@@H]2O[C@H](CO)C[C@H]2O)c2ncnc(N)c12 [Compound 120, 7-Deaza-7-carboxamido-3'-deoxyadenosine (3'-Deoxysangivamycin)]
Ki [4, 9]: 110 ± 20 µM | Reduction of binding to T. gondii adenosine kinase ([4]; relative to sangivamycin): 2 fold

NC(=NO)c1c(Br)n([C@@H]2O[C@H](CO)[C@@H](O)[C@H]2O)c2ncnc(N)c12 [Compound 73, 8-Bromo-7-carboxyamidoxime-7-deazaadenosine]
Ki [4]: 210 ± 30 µM

Nc1nc(Cl)c2ncn([C@@H]3O[C@H](CO)[C@@H](O)[C@H]3O)c2n1 [Compound 63]
Ki [4]: 1800 µM

Nc1ncnc2c1ncn2[C@@H]1C=C(CO)[C@@H](O)[C@H]1O [Compound 114, Neplanocin A]
Ki [4]: 37 ± 10 µM | Decrease in binding to T. gondii adenosine kinase ([4]; relative to reference compound adenosine): 5.3 fold

Nc1ncnc2c1ncn2[C@@H]1O[C@H](COS(=O)(=O)O)[C@@H](O)[C@H]1O [Compound 97, 5'-Sufonyl adenosine (adenosine 5'-monosulfate)]
Ki [4, 9]: 210 ± 60 µM

Nc1ncnc2c1ncn2[C@@H]1O[C@H](COC(=O)c2ccc(S(=O)(=O)F)cc2)[C@@H](O)[C@H]1O [Compound 105, 5'-(p-Fluorosulfonylbenzoyl)adenosine]
Ki [4, 9]: 340 ± 40 µM

CNc1ncnc2c1ncn2[C@H]1C[C@H](O)[C@@H](CO)O1 [Compound 117, N^6 -Methyl-2'-deoxyadenosine]
inhibition at 1000 µM ([4]; read-out: Inhibition of T. gondii adenosine kinase): < 10%

NNc1ncnc2c1ccn2[C@@H]1O[C@H](CO)[C@@H](O)[C@H]1O [Compound 69, 6-Hydrazino-7-deazapurine riboside]
Ki [4]: 180 ± 10 µM
